Source: patent publication US20070105864A1, “Methods for inhibiting protein kinases” (Schering Corporation, priority 2005, published 2007)
Read-outs that look alike come from different tables or passages of the source.

Experiments:
recombinant His-CHK1 = target: T1, recombinant His-CHK1 (Homo sapiens, UniProt O14757); test: CHK1 SPA Assay; assay type: biochemical; settings: read-out: CHK-1 IC50
T1 construct: His-CHK1, In House Lot P976, MW ˜30 KDa, stored at −80 °C; fused on or other part: His tag
T1 sequence (O14757 1-265 limits assumed): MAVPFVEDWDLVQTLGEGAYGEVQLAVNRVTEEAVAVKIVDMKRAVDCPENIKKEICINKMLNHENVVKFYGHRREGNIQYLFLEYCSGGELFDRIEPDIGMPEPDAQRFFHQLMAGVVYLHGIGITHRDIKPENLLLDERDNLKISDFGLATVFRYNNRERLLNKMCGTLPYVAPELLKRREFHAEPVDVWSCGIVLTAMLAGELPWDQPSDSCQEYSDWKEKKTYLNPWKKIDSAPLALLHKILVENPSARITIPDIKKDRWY
Procedure: An in vitro assay was developed that utilizes recombinant His-CHK1 expressed in the baculovirus expression system as an enzyme source and a biotinylated peptide based on CDC25C as substrate (biotin-[…]).
1) CDC25C Ser 216 C-term Biotinylated peptide substrate (25 mg), stored at −20 °C, Custom Synthesis by Research Genetics: biotin-[…] 2595.4 MW
2) His-CHK1 In House lot P976, 235 ug/mL, stored at −80 °C.
1) Kinase Buffer: 50 mM Tris pH 8.0; 10 mM MgCl2; 1 mM DTT
2) His-CHK1, In House Lot P976, MW ˜30 KDa, stored at −80 °C. […] For 1 plate (100 r×n): dilute 8 μL of 235 μg/mL (7.83 uM) stock in 2 mL Kinase Buffer. This makes a 31 nM mixture. Add 20 μL/well. This makes a final reaction concentration of 6 nM.
3) CDC25C Biotinylated peptide.
Dilute CDC25C to 1 mg/mL (385 uM) stock and store at −20° C. For 1 plate (100 r×n): dilute 10 1L of 1 mg/mL peptide stock in 2 ml Kinase Buffer. This gives a 1.925 μM mix. Add 20 1L/r×n. This makes a final reaction concentration of 385 nM.
For 1 plate (100 r×n): dilute 10 μL of 1 mM ATP (cold) stock and 2 uL fresh P33-ATP (20 μCi) in 5 ml Kinase Buffer. This gives a 2 μM ATP (cold) solution; add 50 μl/well to start the reaction. Final volume is 100 μl/r×n so the final reaction concentrations will be 1 μM ATP (cold) and 0.2 uCi/r×n.
For 1 plate add: To 10 mL Wash Buffer 2 (2M NaCl 1% H3PO4): 1 mL SPA bead slurry (50 mg); Add 100 μL/well
6) Wash buffer 1: 2 M NaCl
7) Wash buffer 2: 2 M NaCl, 1% H3PO4
Dispense 10 μl/r×n to appropriate wells. Add 10 μL 10% DMSO to positive (CHK1+CDC25C+ATP) and negative (CHK1+ATP only) control wells. 2) Thaw enzyme on ice—dilute enzyme to proper concentration in kinase buffer (see Reaction Mixtures) and dispense 20 μl to each well. 3) Thaw the Biotinylated substrate on ice and dilute in kinase buffer (see Reaction Mixtures). Add 20 μL/well except to negative control wells. Instead, add 20 uL Kinase Buffer to these wells. 4) Dilute ATP (cold) and P33-ATP in kinase buffer (see Reaction Mixtures). Add 50 μL/well to start the reaction. 5) Allow the reaction to run for 2 hours at room temperature. 6) Stop reaction by adding 100 uL of the SPA beads/stop solution (see Reaction Mixtures) and leave to incubate for 15 minutes before harvest 7) Place a blank Packard GF/B filter plate into the vacuum filter device (Packard plate harvester) and aspirate […] water through to wet the system. 8) Take out the blank and put in the Packard GF/B filter plate. 9) Aspirate the reaction through the filter plate. 10) Wash: 200 ml each wash; 1× with 2M NaCl; 1× with 2M NaCl/1% H3PO4 11) Allow filter plate to dry 15 min. 12) Put TopSeal-A adhesive on top of filter plate. 13) Run filter plate in Top Count
Settings: • Data mode: CPM • Radio nuclide: Manual SPA:P33 • Scintillator: Liq/plast • Energy Range: Low
(§1) IC50 DETERMINATIONS: Dose-response curves were plotted from inhibition data generated, each in duplicate, from 8 point serial dilutions of inhibitory compounds. Concentration of compound was plotted against % kinase activity, calculated by CPM of treated samples divided by CPM of untreated samples. To generate IC50 values, the dose-response curves were then fitted to a standard sigmoidal curve and IC50 values were derived by nonlinear regression analysis.

Cyclin E/CDK2 = target: T2, Cyclin E/CDK2 (Homo sapiens, UniProt P24941); test: CDK2 Assay (Cyclin E/CDK2 in vitro kinase assay); assay type: biochemical
T2 construct: made in house; host or cells: SF9 cells (baculovirus co-infection)
Excerpt: BACULOVIRUS CONSTRUCTIONS: Cyclin E was cloned into pVL1393 (Pharmingen, La Jolla, Calif.) by PCR, with the addition of 5 histidine residues at the amino-terminal end to allow purification on nickel resin. The expressed protein was approximately 45 kDa. CDK2 was cloned into pVL1393 by PCR, with the addition of a haemaglutinin epitope tag at the carboxy-terminal end (YDVPDYAS). The expressed protein was approximately 34 kDa in size.
ENZYME PRODUCTION: Recombinant baculoviruses expressing cyclin E and CDK2 were co-infected into SF9 cells at an equal multiplicity of infection (MOI=5), for 48 hrs. Cells were harvested by centrifugation at 1000 RPM for 10 minutes, then pellets lysed on ice for 30 minutes in five times the pellet volume of lysis buffer containing 50 mM Tris pH 8.0, 1 50 mM NaCl, 1% NP40, 1 mM DTT and protease inhibitors (Roche Diagnostics GmbH, Mannheim, Germany). Lysates were spun down at 15000 RPM for 10 minutes and the supernatant retained. 5 ml of nickel beads (for one liter of SF9 cells) were washed three times in lysis buffer (Qiagen GmbH, Germany). Imidazole was added to the baculovirus supernatant to a final concentration of 20 mM, then incubated with the nickel beads for 45 minutes at 4° C. Proteins were eluted with lysis buffer containing 250 mM imidazole. Eluate was dialyzed overnight in 2 liters of kinase buffer containing 50 mM Tris pH 8.0, 1 mM DTT, 10 mM MgCl2, 100 uM sodium orthovanadate and 20% glycerol. Enzyme was stored in aliquots at −70° C.
IN VITRO KINASE ASSAY: Cyclin E/CDK2 kinase assays were performed in low protein binding 96-well plates (Corning Inc, Corning, N.Y.). Enzyme was diluted to a final concentration of 50 μg/ml in kinase buffer containing 50 mM Tris pH 8.0, 10 mM MgCl2, 1 mM DTT, and 0.1 mM sodium orthovanadate. The substrate used in these reactions was a biotinylated peptide derived from Histone H1 (from Amersham, UK). The substrate was thawed on ice and diluted to 2 μM in kinase buffer. Compounds were diluted in 10% DMSO to desirable concentrations. For each kinase reaction, 20 μl of the 50 µg/ml enzyme solution (1 μg of enzyme) and 20 μl of the 2 μM substrate solution were mixed, then combined with 10 μl of diluted compound in each well for testing. The kinase reaction was started by addition of 50 μl of 2 μM ATP and 0.1 μCi of 33P-ATP (from Amersham, UK). The reaction was allowed to run for 1 hour at room temperature. The reaction was stopped by adding 200 μl of stop buffer containing 0.1% Triton X-100, 1 mM ATP, 5 mM EDTA, and 5 mg/ml streptavidine coated SPA beads (from Amersham, UK) for 15 minutes. The SPA beads were then captured onto a 96-well GF/B filter plate (Packard/Perkin Elmer Life Sciences) using a Filtermate universal harvester (Packard/Perkin Elmer Life Sciences.). Non-specific signals were eliminated by washing the beads twice with 2M NaCl then twice with 2 M NaCl with 1% phosphoric acid. The radioactive signal was then measured using a TopCount 96 well liquid scintillation counter (from Packard/Perkin Elmer Life Sciences).
as §1

| Compound | IC50 (recombinant His-CHK1) | IC50 (Cyclin E/CDK2; read-out: CDK2 IC50) | IC50 (Cyclin E/CDK2; CDK2 IC50) |
| --- | --- | --- | --- |
| Cc1cc(Nc2nc(C3=CCCNC3)cn3c(-c4cnn(C)c4)cnc23)sc1S(=O)(=O)C(C)C | 5 nM | 4790 nM |  |
| CCN(CC)S(=O)(=O)c1sc(Nc2nc(C3=CCCNC3)cn3c(-c4cnn(C)c4)cnc23)cc1C | 19 nM | 18300 nM |  |
| Cn1cc(-c2cnc3c(Nc4ccc(-n5ccnc5)cc4)nc(C4=CCNCC4)cn23)cn1 | 181 nM |  | 19400 nM |
| Cc1cc(Nc2nc(C3CCCNC3)cn3c(-c4cnn(C)c4)cnc23)sn1 (centres unmarked) | 13 nM | 1100 nM |  |
| Cn1cc(-c2cnc3c(Nc4ccc(-n5ccnc5)cc4)nc(C4=CCCNC4)cn23)cn1 [drawing 1440] | 97 nM | 12500 nM |  |
| CNCCCc1cn2c(-c3cnn(C)c3)cnc2c(Nc2sncc2C)n1 | 8 nM | 5770 nM |  |
| Cc1cc(Nc2nc(SC3CCNC3)cn3c(-c4cnn(C)c4)cnc23)sn1 (centres unmarked) | 19 nM |  |  |
| Cn1cc(-c2cnc3c(Nc4ccc(-n5ccnc5)cc4)nc(C4=CCCNC4)cn23)cn1 [drawing 1445] | 97 nM | 12500 nM |  |
| Cc1cc(Nc2nc(C3=CCCNC3)cn3c(-c4cnn(C)c4)cnc23)sc1-c1cnn(C)c1 | 19 nM | 4590 nM |  |
| Cc1cc(Nc2nc(C3=CCCNC3)cn3c(-c4cnn(C)c4)cnc23)sc1C(=O)NC1CCN(S(C)(=O)=O)CC1 | 24 nM | 41000 nM |  |
| Cc1cc(Nc2nc(CCN)cn3c(-c4cnn(C)c4)cnc23)sn1 | 7 nM | 5940 nM |  |
| Cc1cc(Nc2nc(CCN)cn3c(-c4cnn(C)c4)cnc23)sc1S(=O)(=O)N(C)C | 14 nM |  |  |
| Cc1cc(Nc2nc(C3=CCCNC3)cn3c(-c4cnn(C)c4)cnc23)sc1S(=O)(=O)N1CCCC1 | 6 nM | 5170 nM |  |
| Cc1cc(Nc2nc(C3=CCCNC3)cn3c(-c4cnn(C)c4)cnc23)sn1 | 14 nM | 11000 nM |  |
| Cc1cc(Nc2nc(C3=CCCNC3)cn3c(-c4cnn(C)c4)cnc23)sc1S(=O)(=O)N1CCOCC1 | 7 nM | 5950 nM |  |
| Cc1cc(Nc2nc(C3=CCCNC3)cn3c(-c4cnn(C)c4)cnc23)sc1S(=O)(=O)NC1CC1 [drawing 1473] | 7 nM | 3210 nM |  |
| Cn1cc(-c2cnc3c(Nc4sncc4C(C)(C)C)nc(CCN)cn23)cn1 | 11 nM | 14100 nM |  |
| CCNC(=O)c1sc(Nc2nc(C3=CCCNC3)cn3c(-c4cnn(C)c4)cnc23)cc1C | 15 nM |  |  |
| Cc1cc(Nc2nccn3c(-c4cnn(C)c4)cnc23)sn1 | 54 nM |  |  |

| Compound | IC50 (recombinant His-CHK1) | IC50 (Cyclin E/CDK2; read-out: CDK2 IC50) | IC50 (Cyclin E/CDK2; CDK2 IC50) |
| --- | --- | --- | --- |
| Cc1cc(Nc2nc(CCNCC3CC3)cn3c(-c4cnn(C)c4)cnc23)sc1S(=O)(=O)N(C)C | 10 nM |  |  |
| Cc1cc(Nc2nc(C3=CCCNC3)cn3c(-c4cnn(C)c4)cnc23)sc1S(=O)(=O)N(C)C | 7 nM | 5200 nM |  |
| Cc1cc(Nc2nc(C3=CCCNC3)cn3c(-c4cnn(C)c4)cnc23)sc1C(N)=O | 23 nM | 16200 nM |  |
| Cc1cc(Nc2nc(CC3CCNC3)cn3c(-c4cnn(C)c4)cnc23)sn1 (centres unmarked) | 7 nM | 607 nM |  |
| CNCCc1cn2c(-c3cnn(C)c3)cnc2c(Nc2cc(C)ns2)n1 | 13 nM | 11400 nM |  |
| Cc1cc(Nc2nc(C3=CCCNC3)cn3c(-c4cnn(C)c4)cnc23)sc1S(=O)(=O)N(C)C1CC1 | 18 nM | 13100 nM |  |
| CCNC(=O)c1sc(Nc2nc(CCN)cn3c(-c4cnn(C)c4)cnc23)cc1C | 15 nM | 41300 nM |  |
| Cn1cc(-c2cnc3c(Nc4ccns4)nc(CN)cn23)cn1 | 17 nM | 550 nM |  |
| Cn1cc(-c2cnc3c(Nc4sncc4C4CCCNC4)nccn23)cn1 (centres unmarked) | 18 nM | 21800 nM |  |
| Cn1cc(-c2cnc3c(Nc4cc(C5CCNCC5)ns4)nccn23)cn1 | 31 nM | 18100 nM |  |
| Cc1cc(Nc2nc(C3=CCCNC3)cn3c(-c4cnn(C)c4)cnc23)sc1S(=O)(=O)NCCO | 6 nM | 4680 nM |  |
| CCNS(=O)(=O)c1sc(Nc2nc(C3=CCCNC3)cn3c(-c4cnn(C)c4)cnc23)cc1C | 10 nM |  |  |
| CC(C)c1cnsc1Nc1nc(CCN)cn2c(-c3cnn(C)c3)cnc12 | 6380 nM | 13 nM |  |
| Cn1cc(-c2cnc3c(Nc4sncc4C4CCN(S(C)(=O)=O)C4)nc(CCCN)cn23)cn1 (centres unmarked) | 8 nM |  |  |
| Cn1cc(-c2cnc3c(Nc4sncc4C4CCNC4)nccn23)cn1 (centres unmarked) | 23 nM |  |  |
| Cc1cc(Nc2nc(C3=CCCNC3)cn3c(-c4cnn(C)c4)cnc23)sc1C(=O)N(C)C | 16 nM | 24100 nM |  |
| Cc1cc(Nc2nc(C3=CCCNC3)cn3c(-c4cnn(C)c4)cnc23)sc1S(=O)(=O)N1CCC1 | 12 nM |  |  |
| Cc1cc(Nc2nc(C3CCCNC3)cn3c(-c4cnn(C)c4)cnc23)sc1S(=O)(=O)N(C)C (centres unmarked) | 12 nM |  |  |
| Cn1cc(-c2cnc3c(Nc4ccc5ncccc5c4)nccn23)cn1 | 492 nM |  |  |
